Calls of active or inactive are those of the source.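 How the source made its calls: active means compounds giving half or more protection of infected cells from virus-caused growth loss, again on retest; inactive means the rest.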
Tested on: CEM cells HIV-1 protection, formazan growth assay
Test: NCI AIDS Antiviral Assay
Settings: for IC50: measured here: growth of uninfected CEM cells
Summary of the method: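 Screen of anti-HIV-1 activity in human CEM cells using a formazan-based growth measurement at five drug concentrations. Hits with 50% or greater protection were repeated, and confirmation required reproducible complete protection.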

Row | SMILES | EC50 | IC50 | outcome
1 | O=C1OC2(c3ccc(O)cc3Oc3cc(O)ccc32)c2ccccc21 | > 50.1 µM | > 50.1 µM | 
2 | CC(C)(Oc1ccc(/C=C/C(=O)c2ccccc2)cc1)C(=O)Nc1c(Cl)cccc1Cl | > 8.32 µM | > 8.32 µM | 
3 | Cc1cc2c(c3c1c1ccccc1n3C)C(=O)C=CC2=O | > 36.3 µM | 3.72 µM | 
4 | CC1(C)c2ccccc2-c2nc3ccccc3cc2C1N1CCOCC1 (configuration not stated) | > 200 µM | 41.7 µM | 
5 | C/C(=N\N=C(/C)C1CC(CC(=O)O)C1(C)C)C1CC(CC(=O)O)C1(C)C (configuration not stated) | > 186 µM | > 186 µM | 
6 | CC(=O)On1c(-c2ccccc2-c2nc3ccccc3n2OC(C)=O)nc2ccccc21 | > 200 µM | 77.6 µM | 
7 | C1CN2CCOB(O1)OCC2 | > 200 µM | > 200 µM | 
8 | CCOc1ccc(/C=C(\C#N)c2cccc(Cl)c2)cc1 | > 200 µM | 8.51 µM | 
9 | Cc1ccc(-c2c(C#N)c(S)n(NS(=O)(=O)c3ccccc3)c(=O)c2C#N)cc1 | > 200 µM | 18.6 µM | 
10 | Cc1cc2c(c(S(=O)(=O)c3ccccc3[N+](=O)[O-])c1)NCCC2 | 1.55 µM | 21.4 µM | 
11 | COc1ccc2c3c([nH]c2c1)CCN(CCCC(=O)c1ccc(F)cc1)C3 | > 200 µM | 32.4 µM | 
12 | C[C@]12CCCO[C@@H]1CC[C@@H]1[C@@H]2CC[C@]2(C)[C@@H](O)CC[C@@H]12 | > 200 µM | > 200 µM | 
13 | C/C(=N\NS(=O)(=O)c1ccc(C)cc1)c1ccccn1 | > 200 µM | 58.9 µM | 
14 | CC1=C2[C@@H](c3ccccc3)C3C=CC2(C=C3C(F)(F)F)N(C(=O)NC2CCCCC2)C1=O (some centres not stated) | > 16.2 µM | > 16.2 µM | 
15 | CC12CC3CC(C)(C1)CC(SCCCCCN=C(N)CSSCC(N)=NCCCCCSC14CC5CC(C)(CC(C)(C5)C1)C4)(C3)C2 | > 200 µM | 26.9 µM | 
16 | COC(=O)/C=C/c1c(=O)c(C(=O)OC)cn2cnc3nc[nH]c3c12 | > 50.1 µM | > 50.1 µM | 
17 | c1ccc(P(=Nc2ccccc2N=P(c2ccccc2)(c2ccccc2)c2ccccc2)(c2ccccc2)c2ccccc2)cc1 |  |  | inactive
18 | O=C(OCc1ccccc1)N(CCCCN(CCCNCc1ccccc1)C(=O)OCc1ccccc1)CCCNCc1ccccc1 | > 2 µM | 0.871 µM | 
19 | COc1cc(/C=C2\CCc3ccccc3C2=O)ccc1O | > 200 µM | 9.33 µM | 
20 | CC(=O)C(=Cc1cccc(C)c1)C(C)=O | > 339 µM | 17.8 µM | 
21 | CCCCCCCCSC(=O)n1cc(F)c(=O)[nH]c1=O | > 61.7 µM | > 61.7 µM | 
22 | COC(=O)N1CC[C@]2(CC=C(C)C)c3ccccc3N(S(=O)(=O)c3ccccc3)[C@H]12 | > 100 µM | 24.5 µM | 

Row | SMILES | EC50 | IC50 | outcome
23 | CC(=O)Oc1cc(C)c(OC(C)=O)c2c1[C@H]1CC[C@]3(C)[C@@H](OC(C)=O)CC[C@H]3[C@@H]1CC2 | > 200 µM | 16.6 µM | 
24 | Clc1nncc2sc(-c3ccccc3)nc12 | > 151 µM | 8.32 µM | 
25 | CCOC(=O)C1=C(C(=O)OCC)C2(c3ccccc3)N(O1)c1ccccc1C2(C)C (configuration not stated) |  |  | inactive
26 | CCOc1ccccc1NC(=O)C1=C(C)NC(C)=C(C(=O)Nc2ccccc2OCC)C1c1ccc([N+](=O)[O-])cc1 | > 9.33 µM | > 9.33 µM | 
27 | CC(=O)SSC12CC3CC(CC(C3)C1)C2 | > 200 µM | > 200 µM | 
28 | CC1(C)CC(=O)C2=C(C1)NC(SSC1=C(C#N)C(c3ccc(Br)cc3)C3=C(CC(C)(C)CC3=O)N1)=C(C#N)C2c1ccc(Br)cc1 (configuration not stated) | 36.3 µM | 52.5 µM | 
29 | O=[N+]([O-])/C(C(Cl)=C(Cl)Cl)=C(\SCc1ccccc1)N1CCCCC1 | > 200 µM | > 200 µM | 
30 | Cc1occc1C(=S)Nc1ccc(Cl)c(OCC(=O)OC(C)(C)C)c1 | 12.9 µM | 28.2 µM | 
31 | O=C1CC(c2ccccc2)Sc2ccccc2N1 (configuration not stated) | > 200 µM | 89.1 µM | 
32 | C[C@@H](CN1CC(=O)NC(=O)C1)N1CC(=O)NC(=O)C1 | > 933 µM | 91.2 µM | 
33 | Cc1ccc(N=N/C(=N/NC(=O)c2ccccc2)c2ccc(N(CCC#N)CCC#N)cc2C)cc1 | > 200 µM | 14.8 µM | 
34 | Cc1nc(-n2nc(-c3ccccc3)cc2-c2ccccc2)sc1C(=O)/C=C/c1cccc([N+](=O)[O-])c1 | > 14.5 µM | 11 µM | 
35 | CCCCCCCCCCCCCCCCCCSCC(C)(COP(=O)(O)OP(=O)(O)OCC1OC(n2cc(C)c(=O)[nH]c2=O)CC1N=[N+]=[N-])OC(=O)CCCCCCCCCCCCCCC (configuration not stated) | 3.24 µM | 60.3 µM | 
36 | O=C(C=Nc1ccccc1C(=O)[O-])c1ccco1.O=C(C=Nc1ccccc1C(=O)[O-])c1ccco1.[Co+2] | > 1.38 µM | > 1.38 µM | 
37 | CC(C)C1=C[C@@]23CCC4C(C)(C)CCC[C@]4(C(=O)O2)C3=CC1=O (some centres not stated) | > 43.7 µM | > 43.7 µM | 
38 | Cc1nn(C(=O)Cc2ccccc2)c2c1C(c1ccccc1O)SC(N)=N2 (configuration not stated) | 57.5 µM | 398 µM | 
39 | O=C(NS(=O)(=O)Nc1ccccc1)OCC1CCCCC1 | > 200 µM | 135 µM | 
40 | Cn1c(-c2ccc(/C=N/NC(N)=NCCCCCCN=C(N)N/N=C/c3ccc(-c4c[n+]5ccccc5n4C)cc3)cc2)c[n+]2ccccc12 | 2.24 µM | 30.2 µM | 
41 | COC(=O)CCn1cnc2c(SC)ncnc21 | > 200 µM | > 200 µM | 
42 | COc1ccc(/C(=N/O)c2ccccc2C2=Nc3ccccc3C(NCc3ccccc3)O2)cc1C (configuration not stated) | > 200 µM | 22.4 µM | 
43 | CCCCCNc1nonc1N | > 200 µM | > 200 µM | 
44 | CC(/C=N\NC(=S)N1CCCCC1)=N/NC(=S)N1CCCCC1 | > 200 µM | 1.78 µM | 

Row | SMILES | EC50 | IC50 | outcome
45 | c1ccc(N2N=NC3C4CCC(C4)C32)cc1 (configuration not stated) | > 200 µM | > 200 µM | 
46 | Nc1nc(Cl)cc(NCCCCCCCCCCNc2cc(Cl)nc(N)n2)n1 |  |  | inactive
47 | O=C(CCc1ccc(O)c(O)c1)NCCc1ccc(O)c(O)c1 | > 200 µM | 9.55 µM | 
48 | Clc1ccccc1C=NCC1CCC(CN=Cc2ccccc2Cl)CC1 (configuration not stated) | > 200 µM | 9.12 µM | 
49 | COC(=O)CC1C=CC(C)(OC)OO1 (configuration not stated) | > 200 µM | 93.3 µM | 
50 | CC(=O)Nc1ccc(S(=O)(=O)N/N=C/c2ccc(C)cc2)cc1 | > 398 µM | > 398 µM | 
51 | COc1ccc(/C=C2\CCC(C)C3=C(c4ccc(OC)c(OC)c4)C(C#N)=C(N)OC32)cc1OC (configuration not stated) | > 200 µM | 8.32 µM | 
52 | Cc1ccc2oc(=O)cc(CC(=O)O)c2c1 | > 1150 µM | > 1150 µM | 
53 | O=C(O)c1ccc(Sc2ccccc2)cc1 | > 200 µM | > 200 µM | 
54 | CC(=O)OCC12C(OC(C)=O)C[C@@H](C)C3(CC(c4ccoc4)OC3=O)C1CCC(OC(C)=O)C21CO1 (some centres not stated) | > 200 µM | > 200 µM | 
55 | Cc1ccc(SSc2ccc(C)cc2)cc1 | > 20 µM | 3.55 µM | inactive
56 | CCCc1cc(=O)oc2c3c(cc(OC(C)COC)c12)O[C@H](C)[C@@H](C)C3=O (some centres not stated) | > 77.6 µM | 13.8 µM | 
57 | C=CC(CCCCCCCC(=O)O)S(=O)(=O)O (configuration not stated) | > 200 µM | > 200 µM | 
58 | O=C1NC(=O)C2C(=O)NC(=O)C1C2c1c(Cl)cccc1Cl (configuration not stated) | > 759 µM | 501 µM | 
59 | O=C1C=CC(=O)c2c(O)ccc(O)c21 | > 200 µM | 3.89 µM | 
60 | CCCCCCCCCCCCCCCCCC(=O)NCC(COP(=O)([O-])OCC[N+](C)(C)C)OCC (configuration not stated) |  |  | inactive
61 | CCN(CC)c1ccc(N=Nc2ccc([N+](=O)[O-])cc2OC(=O)/C=C/c2ccccc2)c(OC(=O)/C=C/c2ccccc2)c1 | > 4.57 µM | 0.851 µM | 
62 | Cc1nn2c(=O)c([N+](=O)[O-])c(/C=C/c3ccccc3)nc2s1 | > 200 µM | 3.31 µM | 
63 | CCOc1ncn(-c2ccc(NC(=S)Nc3cnccn3)cc2)n1 | 129 µM | > 200 µM | 
64 | C1CCCCc2nc3c(nc2CCC1)c1nc2c(nc1c1nc4c(nc31)CCCCCCCC4)CCCCCCCC2 |  |  | inactive
65 | CCCCC[C@@H]1CCC[C@H]2NC(CCCCC3OCCO3)CC[C@@H]12 (some centres not stated) |  |  | inactive
66 | CN(C)CCn1c(=O)oc2cc(C(=O)CN3CCOCC3)ccc21 | > 200 µM | 102 µM | 

Row | SMILES | EC50 | IC50 | outcome
67 | CO/S(=N/S(=O)(=O)c1ccccc1)c1ccccc1[N+](=O)[O-] (configuration not stated) | > 380 µM | 102 µM | 
68 | CC1OC(O[C@@H]2C=C3CC[C@@H]4[C@H](CC[C@]5(C)[C@@H](c6ccc(=O)oc6)CC[C@]45O)[C@@]3(C)CC2)C(O)C(OC2OC(CO)C(O)C(O)C2O)C1O (some centres not stated) | > 0.02 µM | 0.00295 µM | 
69 | O=NNc1cnccn1 | > 1700 µM | > 1700 µM | 
70 | CCOc1ccc(N=Nc2c(-c3ccccc3)nn(C(=O)CC(=O)Nc3cccc(C)c3)c2-c2ccccc2)cc1 | > 47.9 µM | > 47.9 µM | 
71 | O=C(CC(=O)C1CCOC1=O)C(=O)Nc1ccc(Cl)cc1Cl (configuration not stated) |  |  | inactive
72 | O=C1C=C(Nc2ccc(Cl)cc2Cl)c2ccccc2C1=O | > 1.7 µM | > 1.7 µM | 
73 | O=c1[nH]c(Nc2ccc(F)c(Cl)c2)nc2nc[nH]c12 | > 200 µM | > 200 µM | 
74 | COc1cccc(C2NC(=S)N3C(c4cccc(OC)c4)NC(=S)N23)c1 (configuration not stated) |  |  | inactive
75 | CCNC(=S)N/N=C/c1cc(OC)ccc1O | > 200 µM | 107 µM | 
76 | CC(C)c1cccc(C(C)C)c1NC(=O)/C(CC(=O)CC(c1ccccc1)c1c(O)c2ccccc2oc1=O)=N/O (configuration not stated) | > 89.1 µM | > 89.1 µM | 
77 | CCOP(=O)(Nc1ccc(-c2ccc(N)cc2)cc1)OCC | > 200 µM | 170 µM | 
78 | CCOC(=O)N[C@H]1CCc2cc(OC)c(OC)c(OC)c2-c2ccc(SC)c(=O)cc21 | > 0.2 µM | 0.00123 µM | 
79 | O=C1OCC2C(=O)OCC12 (configuration not stated) | > 200 µM | > 200 µM | 
80 | CCCCCCCC[N+]12CN3CN(CN(C3)C1)C2 | > 759 µM | 39.8 µM | 
81 | Cc1ccc(C2(c3ccc(Cl)cc3)c3ccccc3C3=NCCN32)cc1 (configuration not stated) | > 200 µM | 11 µM | 
82 | N#CNc1nc(N)c(-c2ccc(Cl)cc2)c(C(=O)Nc2nccs2)n1 | > 676 µM | > 676 µM | 
83 | CNNC(=NS(=O)(=O)c1cc(C#N)c(NNC)cc1S)NNC |  |  | inactive
84 | O=C(O)CCSC(=S)NCCNC(=S)SCCC(=O)O | > 708 µM | 437 µM | 
85 | N#CC(C(=N/NC(N)=S)/C(=N/NC(N)=S)C(C#N)c1ccc(Cl)cc1)c1ccc(Cl)cc1 (configuration not stated) | > 257 µM | 186 µM | 

Source: PubChem BioAssay AID179 (DTP/NCI, 2004)
